{"source": "patent US20110003694A1", "about": "“USE OF SOLUTIONS OF MINT OIL OR OF L-CARVONE FOR THE FUNGICIDAL AND/OR ANTI-GERMINATING TREATMENT OF BULBS AND/OR TUBERS” (Zone Artisanale La Crau Route Nationale 7, priority 2007, published 2011)", "system": "silver scurf (Helminthosporium solani)", "assay": "Silver scurf coverage on Roseval potatoes after three months storage", "type": "in vivo", "conditions": "three months storage at 8° C., thermal fogging", "method": "Roseval potatoes were treated by thermal fogging with mint oil at 90 g/tonne, or with 67-72 g/tonne of L-carvone, then three times at 30 g/tonne, or 22.5-24 g/tonne of L-carvone, at 21-day intervals. They were then stored for three months at 8° C. The silver scurf coverage rates were measured on the batches treated with L-carvone and on the controls treated by thermal fogging with CIPC at 200 g/L at a dose of 60 ml/tonne for the first application then at 40 ml/tonne for the subsequent applications.", "data": [{"compound": "C=C(C)C1CC=C(C)C(=O)C1", "note": "[L-carvone, 2-methyl-5-(1-methylethenyl)-2-cyclohexen-1-one]", "values": [{"measurement": "Coverage 5-75% (%) Class 4", "result": 0.0, "unit": "%"}, {"measurement": "Coverage 6-25% (%) Class 2", "result": 0.0, "unit": "b %"}, {"measurement": "Coverage 26-50% (%) Class 3", "result": 0.0, "unit": "b %"}, {"measurement": "Coverage >75% (%) Class 5", "result": 0.0, "unit": "%"}, {"measurement": "Coverage ≦5% (%) Class 1", "result": 28.5, "unit": "%"}, {"measurement": "Silver scurf index (0-100)", "result": 0.8, "unit": "b"}, {"measurement": "Undamaged tubers (%) Class 0", "result": 71.5, "unit": "a %"}]}, {"compound": "CC(C)OC(=O)Nc1cccc(Cl)c1", "note": "[Thermo reference]", "values": [{"measurement": "Coverage 5-75% (%) Class 4", "result": 0.7, "unit": "%"}, {"measurement": "Coverage 6-25% (%) Class 2", "result": 7.7, "unit": "a %"}, {"measurement": "Coverage 26-50% (%) Class 3", "result": 3.9, "unit": "a %"}, {"measurement": "Coverage >75% (%) Class 5", "result": 1.5, "unit": "%"}, {"measurement": "Coverage ≦5% (%) Class 1", "result": 26.2, "unit": "%"}, {"measurement": "Silver scurf index (0-100)", "result": 5.7, "unit": "a"}, {"measurement": "Undamaged tubers (%) Class 0", "result": 60.2, "unit": "b %"}]}]}
